Reference: the supplement of paper PMC11061612

Tests used:
Assay in all cases: Bliss excess, mean over the matrix (fraction); higher = more synergy
[1] = tested on: MV-4-11 (Acute Myeloid Leukemia)
Summary of the method: (§1)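 Cell lines in DMEM/F12 or RPMI with 10% FBS were plated in 1536-well plates, held 24 hours at 37°C, 5% CO2, then given two-drug dose matrices for 72 hours (DMSO typically 0.2%). Viability was read by CellTiter-Glo 2.0 luminescence and scaled as inhibition from 0 (vehicle wells) to 1 (blank wells). Combination Emax is the second-highest inhibition in the matrix; Bliss excess is observed combination effect minus expected EA + EB − EA·EB, EA and EB being single-agent effects.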

[2] = tested on: SK-LU-1 (Lung Adenocarcinoma)
Summary of the method: as §1

[3] = tested on: SW872 (Other Solid Carcinomas)
Summary of the method: as §1

[4] = tested on: MOLT-4 (T-Lymphoblastic Leukemia)
Summary of the method: as §1

[5] = tested on: MOG-G-UVW (Low Grade Glioma)
Summary of the method: as §1

[6] = tested on: NCI-H650 (Lung Adenocarcinoma)
Summary of the method: as §1

[7] = tested on: ME-180 (Cervical Carcinoma)
Summary of the method: as §1

[8] = tested on: NCI-H1092 (Small Cell Lung Carcinoma)
Summary of the method: as §1

[9] = tested on: SW982 (Other Solid Carcinomas)
Summary of the method: as §1

[10] = tested on: G-401 (Other Solid Carcinomas)
Summary of the method: as §1

[11] = tested on: HCC1937 (Breast Carcinoma)
Summary of the method: as §1

[12] = tested on: ALL-SIL (T-Lymphoblastic Leukemia)
Summary of the method: as §1

[13] = tested on: NCI-H2122 (Lung Adenocarcinoma)
Summary of the method: as §1

[14] = tested on: NCI-H1838 (Lung Adenocarcinoma)
Summary of the method: as §1

[15] = tested on: LC-1-sq (Squamous Cell Lung Carcinoma)
Summary of the method: as §1

[16] = tested on: ML-2 (Acute Myeloid Leukemia)
Summary of the method: as §1

[17] = tested on: COLO-679 (Melanoma)
Summary of the method: as §1

[18] = tested on: OACM5-1 (Esophageal Adenocarcinoma)
Summary of the method: as §1

[19] = tested on: Ca-Ski (Cervical Carcinoma)
Summary of the method: as §1

[20] = tested on: DU-145 (Prostate Carcinoma)
Summary of the method: as §1

| SMILES | Bliss excess [1] | Bliss excess [2] | Bliss excess [3] | Bliss excess [4] | Bliss excess [5] | Bliss excess [6] | Bliss excess [7] | Bliss excess [8] | Bliss excess [9] | Bliss excess [10] | Bliss excess [11] | Bliss excess [12] | Bliss excess [13] | Bliss excess [14] | Bliss excess [15] | Bliss excess [16] | Bliss excess [17] | Bliss excess [18] | Bliss excess [19] | Bliss excess [20] |
| --- | --- | --- | --- | --- | --- | --- | --- | --- | --- | --- | --- | --- | --- | --- | --- | --- | --- | --- | --- | --- |
| NC1(C(=O)N[C@@H](CCO)c2ccc(Cl)cc2)CCN(c2ncnc3[nH]ccc23)CC1 [Capivasertib] + CC(=O)c1c(C)c2cnc(Nc3ccc(N4CCNCC4)cn3)nc2n(C2CCCC2)c1=O [Palbociclib] (first compound max 10 µM, 7x7, partner max 10 µM) | -0.0164 | -0.0139 | 0.0237 | -0.0002 | 0.0666 | -0.0413 | -0.0638 | -0.0612 | -0.0523 | -0.009 | -0.0236 | -0.0889 | 0.0338 | 0.0468 | -0.0208 | -0.0354 | -0.201 | -0.0299 | 0.025 | -0.0272 |
| CC(=O)c1c(C)c2cnc(Nc3ccc(N4CCNCC4)cn3)nc2n(C2CCCC2)c1=O [Palbociclib] + Cc1c2c(nn1C)CSCc1cc(n(C)n1)CSc1cc(c3ccccc3c1)OCCCc1c(C(=O)O)n(C)c3c-2c(Cl)ccc13 [AZD5991] (first compound max 10 µM, 7x7, partner max 1 µM) | 0.0127 | -0.0693 | -0.0184 | -0.0073 | -0.0122 | -0.0583 | -0.0545 | -0.0646 | -0.0151 | 0.0308 | -0.0498 | -0.0576 | -0.0218 | -0.0634 | -0.0587 | 0.0133 | -0.107 | -0.0456 | -0.0239 | -0.0216 |
| Cc1c2c(nn1C)CSCc1cc(n(C)n1)CSc1cc(c3ccccc3c1)OCCCc1c(C(=O)O)n(C)c3c-2c(Cl)ccc13 [AZD5991] + C=CCn1c(=O)c2cnc(Nc3ccc(N4CCN(C)CC4)cc3)nc2n1-c1cccc(C(C)(C)O)n1 [AZD1775] (first compound max 1 µM, partner max 1 µM) | -0.0407 | -0.0082 | 0.0634 | -0.0043 | -0.0756 | 0.0397 | -0.0379 | -0.048 | -0.0549 | 0.0023 | -0.0157 | 0.0026 | – | 0.0159 | -0.0139 | -0.0342 | 0.0628 | -0.04 | -0.0012 | 0.0621 |
| Cc1c2c(nn1C)CSCc1cc(n(C)n1)CSc1cc(c3ccccc3c1)OCCCc1c(C(=O)O)n(C)c3c-2c(Cl)ccc13 [AZD5991] + CCN(CCO)CCCOc1ccc2c(Nc3cc(CC(=O)Nc4cccc(F)c4)[nH]n3)ncnc2c1 [AZD2811] (first compound max 1 µM, 7x7, partner max 1 µM) | -0.0046 | -0.0306 | 0.0237 | -0.0126 | 0.0197 | 0.0512 | – | 0.0479 | -0.0578 | -0.0061 | -0.0028 | -0.0282 | 0.0065 | 0.0109 | 0.0425 | -0.0122 | 0.0115 | 0.0416 | 0.0869 | -0.0282 |
| C=CCn1c(=O)c2cnc(Nc3ccc(N4CCN(C)CC4)cc3)nc2n1-c1cccc(C(C)(C)O)n1 [AZD1775] + C1CN(CCC1(C(=O)N[C@@H](CCO)C2=CC=C(C=C2)Cl)N)C3=NC=NC4=C3C=CN4 [Capivasertib] (first compound max 3 µM, partner max 3 µM) | – | 0.0164 | -0.106 | 0.0536 | -0.0039 | 0.0136 | 0.0063 | -0.0497 | -0.0415 | -0.0241 | -0.0385 | -0.0129 | 0.0752 | -0.0978 | -0.128 | -0.0148 | -0.0625 | -0.0553 | 0.0161 | -0.055 |
| CN(CCO)CC[C@H](CSc1ccccc1)Nc1ccc(S(=O)(=O)NC(=O)c2ccc(N3CCC([C@@H](O)c4ccccc4-c4ccc(Cl)cc4)CC3)cc2)cc1S(=O)(=O)C(F)(F)F [AZD4320] + C=CCn1c(=O)c2cnc(Nc3ccc(N4CCN(C)CC4)cc3)nc2n1-c1cccc(C(C)(C)O)n1 [AZD1775] (first compound max 1 µM, partner max 1 µM) | – | -0.038 | 0.0035 | 0.0674 | -0.0193 | 0.0369 | -0.0304 | 0.0527 | 0.0247 | -0.0058 | 0.0878 | 0.0693 | -0.0143 | -0.0311 | 0.0279 | -0.0228 | -0.0078 | -0.01 | 0.0198 | -0.0308 |
| Cc1nc(-c2cn3c(n2)-c2ccc(-c4cnn(C(C)(C)C(N)=O)c4)cc2OCC3)n(C(C)C)n1 [Taselisib] + O=C(Nc1ccc2[nH]nc(-c3ccncc3)c2c1)[C@@H]1CCN(CC(=O)N2CCN(c3ccc(-c4ncccn4)cc3)CC2)C1 [SCH772984] (first compound max 10 µM, 7x7, partner max 5 µM) | 0.177 | 0.0898 | 0.0712 | 0.13 | 0.0333 | – | 0.0324 | – | -0.0167 | – | – | – | – | – | – | 0.101 | -0.0148 | – | 0.0833 | 0.0551 |
